Patent publication US20230248670A1, “APPLICATION OF PREPARATION FOR INHIBITING CAMK2G EXPRESSION IN PREPARATION OF MEDICINE FOR TREATING PSORIASIS” (priority 2022, published 2023)

What was measured:
[1] = system: IMQ-induced psoriasis mice; assay: IMQ-induced psoriasis mouse model with subcutaneous injection of NE, SAL or ICI; type: in vivo; conditions: for activation of p38 in IMQ-induced skin: SAL or ICI treatment, mouse skin; for IMQ-induced psoriasis-like phenotype (dorsal skin thickness, erythema, scaling) / proportion of IL-17A+ γδ T cells (γδ T-17 cells) in mouse skin: subcutaneous injection; for IMQ-induced psoriasis-like phenotype (dorsal skin thickness, erythema, scaling): IMQ-induced mice, vs control group; for proportion of IL-17A+ γδ T cells (γδ T-17 cells) in mouse skin: IMQ-induced mouse skin, flow cytometry
Procedure: In the embodiment of the disclosure, establishment steps of IMQ-induced Camk2g^-/- psoriasis mouse model include steps as follows. 7-week-old wild type mice (WT) (n = 5) or Camk2g^-/- mice (n = 5) are taken to shave back hair, and the exposed skin area is 2 centimeters (cm) × 2 cm, […] (mg) of IMQ cream or control agent Vaseline (VAS) are evenly applied to the exposed skin of mice for 4 consecutive days, psoriasis area severity index (PASI) score is performed every day, and the mice are sacrificed on the 5th day to take the skin, spleen and blood for testing.
In the embodiment of the disclosure, the skin tissue is fixed with 10% formalin, embedded in paraffin, cut into 4 micrometers (µm) sections for hematoxylin and eosin (H&E) staining.
In the embodiment of the disclosure, the inflammation scoring method of the mouse model is an objective scoring system developed on the basis of clinical PASI score. Scores of erythema, scaling and thickening ranged from 0 to 4:0: none; 1: mild, 2: moderate, 3: obvious, and 4: very significant. The degree of erythema is scored using a scoring scaling based on erythema intensity. A cumulative score (i.e., erythema + scaling + thickening) can be used as an indicator of the severity of inflammation (the cumulative score is in a range of 0-12).
In the embodiment of the disclosure, separation steps of skin immunocytes include steps as follows. the skin is fully chopped and then digested in digestive enzymes at 37° C. and 225 revolutions per minute (rpm) for 1.5 hours to thereby obtain an initial digestion solution. The digestive enzymes are formulated as follows: 1.2 grams (g) bovine serum albumin (BSA) (Biofoxx, 4240GR100), 0.12 g type I collagenase (Sigma, C0130-5G), 0.06 g type IV collagenase (Worthington, LS004189) and 0.06 g hyaluronidase (Sigma, H3506) -5G) are dissolved in 30 milliliters (mL) dulbecco’s modified eagle medium (DMEM) (HyClone, SH30022.01). 150 microliters (µL) of 1 microgram per milliliter (mg/mL) deoxyribonuclease (DNase) (Yuanye, S10073) is added in the initial digestion solution and the digestion is continued for 30 minutes to obtain a first cell suspension. After the digestion, the first cell suspension is filtered through a 70-µm filter. The filtered first cell suspension is centrifuged at 4° C. and 2000 rpm for 8 minutes, and first cell particles are collected after removing a first supernatant. The first cell particles are suspended in 6 mL of 40% lymphocyte isolation solution (5.4 mL Percoll (GE Healthcare, 17-0891-09) +520 µL Hank’s Solution (Beyotime, C0219) +44 µL 2×Hepes Buffer (Solarbio, H1080-100) +[…] phosphate-buffered saline (PBS)) of a centrifuge tube. Then, 6 mL of 80% lymphocyte isolation solution (5.4 mL Percoll+520 µL Hank’s Solution+44 µL 2×Hepes Buffer+1.491 mL PBS) is slowly added to the tube wall to obtain a first mixed solution, and the first mixed solution is clearly separated into two layers. The first mixed solution is centrifuged at 4° C. and 2000 rpm for 20 minutes, and the centrifugal lifting force is kept to a minimum. The liquid in the centrifuge tube after centrifugation can be divided into four layers. From top to bottom of the centrifuge tube, there are 40% lymphocyte isolation solution, lymphocytes, 80% lymphocyte isolation solution and cell fragments. Lymphocytes are carefully transferred into a new centrifuge tube and thoroughly washed with 10 mL PBS to obtain a second mixed solution. The second mixed solution is centrifuged at 4° C. and 2000 rpm for 8 minutes to obtain a second cell suspension, and second cell particles are collected after removing a second supernatant. Then, 1 µL of each cell membrane surface antibody is added to 50 µL of PBS, mixed with the second cell particles, and incubated at room temperature for 30 minutes in the dark. […]

Jurkat cells = assay: Proinflammatory cytokine production in PMA/ionomycin co-stimulated Jurkat cells; type: cell-based, human; conditions: co-stimulation with PMA and ionomycin
Text: In the embodiments of the disclosure, “Phorbol 12-myristate 13-acetate (PMA)” and “ionomycin (Ion)” are used to activate Jurkat cells, and only activated Jurkat cells can highly express inflammatory factors.
In the embodiment of the disclosure, in order to in order to study how ADRB2 regulates the inflammatory response of γδ T cells, Jurkat cells (a kind of immortal human T lymphocytes) are stimulated with ADRB2 agonist SAL and antagonist ICI 118551 respectively.

Jurkat T cells = assay: MAPK (p38, ERK, JNK) activation in PMA/ionomycin activated Jurkat T cells; type: cell-based, human; conditions: Jurkat T cells activated by PMA/ionomycin for 2 hours, treatment for 4 hours
Text: This is consistent with the existing literature that p38 phosphorylation promotes the proliferation of Th17 cells in autoimmune arthritis. P38 MAPK signaling pathway plays a role in the activation and differentiation of T cells in the peripheral blood immune system.

[2] = system: skin sympathetic nerves of IMQ-induced mice; assay: Local skin sympathectomy by intradermal 6-OHDA before IMQ treatment; type: in vivo, mouse
Procedure: In an embodiment of the disclosure, in order to observe the effect of local sympathectomy on psoriasis mice, mice are injected with 6-OHDA intradermally before IMQ treatment (FIG. 25).

SH-SY5Y cells = assay: 6-OHDA induced SH-SY5Y cell injury (qPCR, western blot); type: cell-based, human
Text: In an embodiment of the disclosure, to further study whether CAMK2γ directly affects the expression of TH in sympathetic nerves, RNA interference (RNAi) method is used to knock down CAMK2G in human neuroblastoma cell (SH-SY5Y). SH-SY5Y is a poorly differentiated tumor cell with high similarity in morphology, physiology and biochemical function to dopaminergic neurons in real-time in vivo, and can constitutively express TH.

IMQ-induced mice = conditions: intraperitoneal injection; cited from earlier work
[3] = system: PMA-activated HL-60 cells; assay: NETs protein release in PMA-activated HL-60 cells; type: cell-based
Text: The existing literature discloses that although T cells producing IL-17 have long been the mainstream of psoriasis immunology research, neutrophils, as the largest number of cells in the innate immune system, have attracted much attention in the occurrence and development of psoriasis. Activated neutrophils produce enhanced respiratory burst, accompanied by the production of reactive oxygen species (ROS), ultimately leading to the development of NETosis. NETosis is a form of neutrophil death different from apoptosis and necrosis. NETosis is accompanied by the formation of NETs. NETs release proteases such as myeloperoxidase (MPO), neutrophil elastase (NE) and peptidyl arginine deiminase 4 (PAD4), which are involved in the hydrolysis and activation of inflammatory mediators and the formation of NETs of psoriasis autoantigens. HL60 is a bone marrow cell line with the potential to differentiate into neutrophils stimulated by dimethyl sulfoxide (DMSO). CAMK2γ is the member of CAMK family with the highest expression level and activity in HL-60 cells.
In the embodiment of the disclosure, in order to study whether CAMK2γ is involved in the formation of NETs in activated neutrophils, two kinds of CaMKII inhibitors, CaMKII-IN1 and KN93, are used.

[4] = system: γδ T cell deficient-mice (Tcrd^-/-); assay: SAL subcutaneous injection in γδ T cell deficient-mice (Tcrd-/-); type: in vivo, mouse
Text: SAL has no effect on the ability of αβ T cells to produce IL-17 (FIG. 50). Combined with the previous results, NE in the skin mainly derives from the skin sympathetic nerves and mediates the release of IL-17 from γδ T cells instead of αβ T cells through the NE-ADRB2 signaling pathway.

[5] = system: IMQ-induced psoriasis mice; assay: IMQ-induced psoriasis mouse model with subcutaneous injection of NE, SAL or ICI; type: in vivo; conditions: after injection of NE
[6] = intradermal 6-OHDA, sympathetic denervated skin

In the case of `CC(C)Cn1cnc2c(N)nc3ccccc3c21` [IMQ, imiquimod], the “p38 phosphorylation in mouse skin” value ([1]; IMQ treatment) is reported as “p38 phosphorylation is activated by IMQ”, the “proportion of β2-AR+ T cells in mouse skin” value ([1]; IMQ treatment) is reported as “increases a proportion of β2-AR+ T cells in mouse skin” and the “TH phosphorylation in mouse skin” value ([1]; IMQ treatment, western blot) is reported as “significant upregulation of TH phosphorylation”.

With `Cc1ccc(OCC(O)C(C)NC(C)C)c2c1CCC2` (stereo not drawn) [ICI, ICI 118551] the “activation of p38 in IMQ-induced skin” value [1] was “showed inhibitory effect”, the “IMQ-induced psoriasis-like phenotype (dorsal skin thickness, erythema, scaling)” value [1] was “psoriasis phenotype of mice injected with ICI is reduced” and the “proportion of IL-17A+ γδ T cells (γδ T-17 cells) in mouse skin” value (“proportion of IL-17A+ γδ T cells” for short) [1] was “reduces a proportion of skin γδ T-17 cells”. For the same compound, the “production of T-cell proinflammatory cytokines IL-17A, TNF-α and IL-22” value (Jurkat cells) was “reduces the production of the T-cell proinflammatory cytokines”, the “activation of ERK and JNK” value (Jurkat T cells) was “does not affect the activation” and the p38 phosphorylation (Jurkat T cells) was “inhibited”.

In the case of `NCCc1cc(O)c(O)cc1O` [6-OHDA, 6-hydroxydopamine], the “TH and pTH in skin” value ([2]; intradermal 6-OHDA before IMQ, immunofluorescence and western blot) is reported as “significant reduction of TH and pTH”, the IMQ-induced psoriasis-like phenotype ([2]; intradermal 6-OHDA, skin sympathetic denervation) is reported as “reduces IMQ-induced psoriasis-like phenotype in mice” and the “IL-17A+ γδ T cells in skin” value [2, 6] is reported as “IL-17A+ γδ T cells are reduced”. The NE in skin [2, 6] was “reduction of NE”, the CAMK2G expression (SH-SY5Y cells; qPCR) was “no significant effect on CAMK2G expression” and the “intracellular TH transcription level” value (SH-SY5Y cells; qPCR) was “decrease of intracellular TH transcription level”. For the same compound, the “phosphorylation levels of other members of the CaMKII family” value (SH-SY5Y cells; western blot) was “may lead to increased phosphorylation levels of other members of the CaMKII family”, the “total protein level and pTH level of CAMK2γ” value (SH-SY5Y cells; western blot) was “reduces the total protein level and pTH level of CAMK2γ” and the IMQ-induced ear swelling (IMQ-induced mice) was “can reduce IMQ-induced ear swelling”. The “production of IL-17” value (IMQ-induced mice) was “does not affect the production of IL-17”.

In the case of `Cc1c(Cl)cccc1S(=O)(=O)Nc1nc(NCCc2ccccc2)nc2c1CN(Cc1ccccc1)CC2` [CaMKII-IN1], the “release of MPO, elastase and PAD4” value [3] is reported as “inhibits the release of MPO, elastase and PAD4”.

In the case of `OCc1cc(C(O)CNCCCCCCOCCCCc2ccccc2)ccc1O` (stereo not drawn) [SAL, salmeterol xinafoate], the “activation of p38 in IMQ-induced skin” value [1] is reported as “enhanced the activation of p38”, the “IMQ-induced psoriasis-like phenotype (dorsal skin thickness, erythema, scaling)” value [1] is reported as “psoriasis phenotype of mice injected with SAL increased” and the “proportion of IL-17A+ γδ T cells” value [1] is reported as “promotes IL-17A production by γδ T cells”. For the same compound, the “ability of αβ T cells to produce IL-17” value [4] was “no effect”, the “psoriasis phenotype and inflammatory infiltration” value [4] was “promotion of psoriasis phenotype and inflammatory infiltration by SAL is counteracted by the lack of γδ T cells” and the “production of T-cell proinflammatory cytokines IL-17A, TNF-α and IL-22” value (Jurkat cells) was “increase the production of T-cell proinflammatory cytokines IL-17A, TNF-α and IL-22”. The p38 phosphorylation (Jurkat T cells) was “significantly increased”.

With `NC[C@H](O)c1ccc(O)c(O)c1` [NE, norepinephrine] the “IL-17A+ γδ T cells in CAMK2G-deleted mice” value ([1]; NE administration, IMQ-induced Camk2g-/- mice) was “counteracts the decrease of IL-17A+ γδ T cells caused by CAMK2G deletion”, the “p38 phosphorylation in skin of Camk2g-/- mice” value ([1]; NE injection, compared to IMQ-treated WT mice) was “increases and restores p38 phosphorylation” and the “IMQ-induced psoriasis-like phenotype (dorsal skin thickness, erythema, scaling)” value [1] was “aggravates the IMQ-induced psoriasis-like phenotype”. For the same compound, the “proportion of IL-17A+ γδ T cells” value [1] was “increases a proportion of IL-17A+ γδ T cells in mouse skin” and the “difference in skin thickness between WT and Camk2g-/- mice” value [5] was “disappeared”.

For `COc1ccc(S(=O)(=O)N(CCO)c2ccccc2CN(C)C/C=C/c2ccc(Cl)cc2)cc1` [KN93], the “release of MPO, elastase and PAD4” value [3] was “inhibits the release of MPO, elastase and PAD4”.
